In US20100179122A1 (priority 2005, published 2010) one finds IC95 and IC50 data, which are given here for 29 molecules.

The subject of test [1] is acute HIV infection of T-lymphoid cells. Nature of the test: Assay for inhibition of HIV replication (spread assay). As to conditions: read-out: IC95, spread assay. It counts as cell-based. The method, then:
An assay for the inhibition of acute HIV infection of T-lymphoid cells (alternatively referred to herein as the “spread assay”) was conducted in accordance with Vacca, J. P. et al., Proc. Natl. Acad. Sci. USA 1994, 91: 4096. […] The compounds set forth in the other Examples were not tested in the spread assay.

Test [2] has as its target T1, mutant HIV reverse transcriptase (K103N mutation) (Human immunodeficiency virus type 1 group M subtype B, UniProt P04585, K690N).
T1 construct: mutations that occur in the reverse transcriptase segment of the pol gene; made in house
The test can be described thus: Analogous RT inhibition assay, K103N mutant. It counts as biochemical. The method, then:
(§1) 100 μL reaction mixtures were initiated with a combination of primer-template substrate (10 nM final concentration) and dNTPs (0.6 μM dNTPs, 0.75 μM [^3H]-dGTP). The heterodimeric nucleic acid substrate was generated by annealing the DNA primer pD500 (described in Shaw-Reid et al., J. Biol. Chem., 278: 2777-2780; obtained from Integrated DNA Technologies) to t500, a 500 nucleotide RNA template created by in vitro transcription (see Shaw-Reid et al., J. Biol. Chem., 278: 2777-2780). After 1 hour incubation at 37° C., reactions were quenched by 10 μl, streptavidin scintillation proximity assay beads (10 mg/mL, from Amersham Biosciences) in 0.5 M EDTA, pH 8. Microtiter plates were incubated an additional 10 minutes at 37° C. prior to quantification via Topcount (Packard).
(§2) Analogous assays were conducted substituting mutant HIV strains to determine the […] inhibition of compounds of the present invention against mutant HIV reverse transcriptase. In one strain the reverse transcriptase has the Y181C mutation and in the other strain the reverse transcriptase has the K103N mutation. The mutations were generated with the […] site-directed mutagenesis kit (Stratagene). […] The compounds set forth in the other Examples were not tested in the Y181C assay. […] The compounds set forth in the other Examples were not tested in the K103N assay.

Test [3] has as its target T2, mutant HIV reverse transcriptase (Y181C mutation) (Human immunodeficiency virus type 1 group M subtype B, UniProt P04585, Y768C).
T2 construct: mutations that occur in the reverse transcriptase segment of the pol gene; made in house
Nature of the test: Analogous RT inhibition assay, Y181C mutant. It counts as biochemical. The method, then: as §1, §2

The mark [4] stands for this setting: Human immunodeficiency virus 1, inhibition of acute HIV infection of T-lymphoid cells.
Setting [5] is: reverse transcriptase with K103N mutation, tested up to 20 micromolar, read-out: IC50, K103N mutant assay.
Where [6] appears, read: reverse transcriptase with Y181C mutation, tested up to 20 micromolar, read-out: IC50, Y181C mutant assay.

Like-named read-outs stand apart in the source and are kept apart here.

The IC95 is the concentration at which the effect reaches the 95% level. As usually defined, the IC50 is the point on the concentration scale where inhibition reaches its midpoint.

As for `O=C(Nc1ccccc1F)Nc1[nH]c2ccc(Cl)cc2c1S(=O)(=O)c1ccccc1` [Example 2, N-[5-chloro-3-(phenylsulfonyl)-1H-indol-2-yl]-N-(2-fluorophenyl)urea], in test [1] (setting [4]), the IC95 is < 1000 nM. For the same molecule, in test [2], the IC50 was < 1000 nM.

In the case of `O=C(Nc1[nH]c2ccc(Cl)cc2c1S(=O)(=O)c1ccccc1)C1CC1` [Example 3, N-[5-Chloro-3-(phenylsulfonyl)-1H-indol-2-yl]cyclopropanecarboxamide], the IC95 in test [1] (setting [4]) is < 1000 nM. For the same molecule, the IC50 in test [3] was 1000 to 20000 nM; in test [2] it was < 1000 nM.

Take `CC(=O)OCC(=O)Nc1[nH]c2ccc(Cl)cc2c1S(=O)(=O)c1ccccc1` [Example 5, 2-{[5-chloro-3-(phenylsulfonyl)-1H-indol-2-yl]amino}-2-oxoethyl acetate]: the IC95 in test [1] (setting [4]) is < 1000 nM. For the same molecule, the IC50 in test [3] and in test [2] was < 1000 nM in each case.

Take `O=C(CCOc1ccccc1)Nc1[nH]c2ccc(Cl)cc2c1S(=O)(=O)c1ccccc1` [Example 8, N-[5-chloro-3-(phenylsulfonyl)-1H-indol-2-yl]-3-phenoxypropanamide]: the IC95 in test [1] (setting [4]) was < 1000 nM. For the same molecule, the IC50 in test [3] and in test [2] was > 20000 nM each time.

`O=C(Nc1[nH]c2ccc(Cl)cc2c1S(=O)(=O)c1ccccc1)C1Cc2ccccc2O1` (stereo not shown) [Example 10, N-[5-chloro-3-(phenylsulfonyl)-1H-indol-2-yl]-2,3-dihydro-1-benzofuran-2-carboxamide]: in test [1] (setting [4]), the IC95 is < 1000 nM. Moreover, the IC50 in test [3] and in test [2] was < 1000 nM in each case.

`O=C(Nc1[nH]c2ccc(Cl)cc2c1S(=O)(=O)c1ccccc1)C1COc2ccccc2O1` (stereo not shown) [Example 11, N-[5-chloro-3-(phenylsulfonyl)-1H-indol-2-yl]-2,3-dihydro-1,4-benzodioxine-2-carboxamide]: the IC95 in test [1] (setting [4]) is < 1000 nM. The IC50 in test [3] and in test [2] was < 1000 nM each time.

Regarding `CC(C)C(=O)Nc1[nH]c2ccc(Cl)cc2c1S(=O)(=O)c1ccccc1` [Example 15, N-[5-chloro-3-(phenylsulfonyl)-1H-indol-2-yl]-2-methylpropanamide], the IC95 in test [1] (setting [4]) is < 1000 nM. For the same molecule, the IC50 in test [3] and in test [2] was 1000 to 20000 nM each time.

Take `CCNCC(=O)Nc1[nH]c2ccc(Cl)cc2c1S(=O)(=O)c1ccccc1` [Example 21, N^1-[5-chloro-3-(phenylsulfonyl)-1H-indol-2-yl]-N^2-ethylglycinamide]: in test [1] (setting [4]), the IC95 was < 1000 nM. Besides, the IC50 in test [3] and in test [2] was < 1000 nM each time.

Turning to `CCC(C)C(=O)Nc1[nH]c2ccc(Cl)cc2c1S(=O)(=O)c1ccccc1` (stereo not shown) [Example 26, N-[5-chloro-3-(phenylsulfonyl)-1H-indol-2-yl]-2-methylbutanamide], the IC95 in test [1] (setting [4]) is < 1000 nM. Moreover, the half-maximal inhibitory concentration (IC50) in test [3] was < 1000 nM; in test [2], 1000 to 20000 nM.

In the case of `O=C(Nc1ccc(F)cc1)Nc1[nH]c2ccc(Cl)cc2c1S(=O)(=O)c1ccccc1` [Example 31, N-[5-chloro-3-(phenylsulfonyl)-1H-indol-2-yl]-N′-(4-fluorophenyl)urea], the IC95 in test [1] (setting [4]) was < 1000 nM. In addition, the IC50 in test [3] and in test [2] was > 20000 nM in each case.

Take `O=C(CN1CCC(c2ccncc2)CC1)Nc1[nH]c2ccc(Cl)cc2c1S(=O)(=O)c1ccccc1` [Example 37, N-[5-chloro-3-(phenylsulfonyl)-1H-indol-2-yl]-2-(4-pyridin-4-ylpiperidin-1-yl)acetamide]: the IC50 in test [3] and in test [2] was > 20000 nM throughout.

Consider `O=C(CNCc1cscn1)Nc1[nH]c2ccc(Cl)cc2c1S(=O)(=O)c1ccccc1` [Example 38, N^1-[5-chloro-3-(phenylsulfonyl)-1H-indol-2-yl]-N^2-(1,3-thiazol-4-ylmethyl)glycinamide], for which the IC50 in test [3] and in test [2] was < 1000 nM each time.

`O=C(NCc1cccc(F)c1)Nc1[nH]c2ccc(Br)cc2c1S(=O)(=O)N1CCCC1` [Example 70]: in test [2] (setting [5]), the IC50 is < 1000 nM.

In the case of `O=C(Nc1ccccc1)Nc1[nH]c2ccc(Br)cc2c1S(=O)(=O)N1CCCC1` [Example 73, N-[5-bromo-3-(pyrrolidin-1-ylsulfonyl)-1H-indo1-2-yl]-N′-phenylurea], in test [1] (setting [4]), the IC95 was < 1000 nM. For the same molecule, the IC50 in test [2] (setting [5]) is < 1000 nM.

For `CC(C)NC(=O)Nc1[nH]c2ccc(Br)cc2c1S(=O)(=O)N1CCCC1` [Example 74, N-[5-bromo-3-(pyrrolidin-1-ylsulfonyl)-1H-indol-2-yl]-N′-isopropylurea], the IC50 in test [2] (setting [5]) is < 1000 nM.

`O=C(Nc1[nH]c2ccc(Br)cc2c1S(=O)(=O)N1CCCC1)NC1CCCC1` [Example 78, N-[5-bromo-3-(pyrrolidin-1-ylsulfonyl)-1H-indol-2-yl]-N′-cyclopentylurea]: the concentration for half-maximal inhibition (IC50) in test [3] is > 20000 nM; in test [2] (setting [5]), < 1000 nM.

For `O=C(NCc1ccccc1O)Nc1[nH]c2ccc(Br)cc2c1S(=O)(=O)N1CCCC1` [Example 79, N-[5-bromo-3-(pyrrolidin-1-ylsulfonyl)-1H-indol-2-yl]-N′-(2-hydroxybenzyl)urea], the IC50 in test [3] was > 20000 nM; in test [2] (setting [5]), < 1000 nM.

As for `O=C(NCc1ccccn1)Nc1[nH]c2ccc(Br)cc2c1S(=O)(=O)N1CCCC1` [Example 80, N-[5-bromo-3-(pyrrolidin-1-ylsulfonyl)-1H-indol-2-yl]-N′-(pyridin-2-ylmethyl)urea], the IC50 in test [3] is 1000 to 20000 nM; in test [2] (setting [5]), < 1000 nM.

On to `O=C(NCc1cccnc1)Nc1[nH]c2ccc(Br)cc2c1S(=O)(=O)N1CCCC1` [Example 81, N-[5-bromo-3-(pyrrolidin-1-ylsulfonyl)-1H-indol-2-yl]-N′-(pyridin-3-ylmethyl)urea], for which the IC50 in test [3] was 1000 to 20000 nM; in test [2] (setting [5]), < 1000 nM.

Consider `O=C(NCc1cncs1)Nc1[nH]c2ccc(Br)cc2c1S(=O)(=O)N1CCCC1` [Example 83, N-[5-bromo-3-(pyrrolidin-1-ylsulfonyl)-1H-indol-2-yl]-N′-(1,3-thiazol-5-ylmethyl)urea], for which the IC50 is 1000 to 20000 nM in test [3] and < 1000 nM in test [2] (setting [5]).

With `O=C(Nc1[nH]c2ccc(Br)cc2c1S(=O)(=O)N1CCCC1)N1CCCC1` [Example 84, N-[5-bromo-3-(pyrrolidin-1-ylsulfonyl)-1H-indol-2-yl]pyrrolidine-1-carboxamide], the IC50 in test [3] (setting [6]) was > 20000 nM; in test [2] (setting [5]), < 1000 nM.

In the case of `O=C(NCCc1ccccc1)Nc1[nH]c2ccc(Br)cc2c1S(=O)(=O)N1CCCC1` [Example 85, N-[5-bromo-3-(pyrrolidin-1-ylsulfonyl)-1H-indol-2-yl]-N′-(2-phenylethyl)urea], the half-maximal inhibitory concentration (IC50) in test [3] (setting [6]) is > 20000 nM; in test [2] (setting [5]), < 1000 nM.

`NC(=O)C1CCCN(C(=O)Nc2[nH]c3ccc(Br)cc3c2S(=O)(=O)N2CCCC2)C1` (stereo not shown) [Example 87, N^1-[5-bromo-3-(pyrrolidin-1-ylsulfonyl)-1H-indol-2-yl]piperidine-1,3-dicarboxamide]: the IC50 in test [3] (setting [6]) is > 20000 nM; in test [2] (setting [5]), < 1000 nM.

Turning to `O=C(NCCc1ccccn1)Nc1[nH]c2ccc(Br)cc2c1S(=O)(=O)N1CCCC1` [Example 88, N-[5-bromo-3-(pyrrolidin-1-ylsulfonyl)-1H-indol-2-yl]-N′-(2-pyridin-2-ylethyl)urea], the values for the IC50 in test [3] (setting [6]) and in test [2] were > 20000 nM and 1000 to 20000 nM, respectively.

Regarding `CN1CCN(C(=O)Nc2[nH]c3ccc(Br)cc3c2S(=O)(=O)N2CCCC2)CC1` [Example 91, N-[5-bromo-3-(pyrrolidin-1-ylsulfonyl)-1H-indol-2-yl]-4-methylpiperazine-1-carboxamide], the results for the IC50 in test [3] (setting [6]) and in test [2] were > 20000 nM and 1000 to 20000 nM, respectively.

Regarding `CC(C)(C)CCNC(=O)Nc1[nH]c2ccc(Br)cc2c1S(=O)(=O)N1CCCC1` [Example 92, N-[5-bromo-3-(pyrrolidin-1-ylsulfonyl)-1H-indol-2-yl]-N′-(3,3-dimethylbutyl)urea], the IC50 in test [3] (setting [6]) and in test [2] was > 20000 nM in each case.

As to `O=C(NCCNc1ccccc1)Nc1[nH]c2ccc(Br)cc2c1S(=O)(=O)N1CCCC1` [Example 93, N-(2-anilinoethyl)-N′-[5-bromo-3-(pyrrolidin-1-ylsulfonyl)-1H-indol-2-yl]urea], the IC50 in test [3] (setting [6]) was > 20000 nM; in test [2], 1000 to 20000 nM.

Turning to `CN(C)CCCNC(=O)Nc1[nH]c2ccc(Br)cc2c1S(=O)(=O)N1CCCC1` [Example 94, N-[5-bromo-3-(pyrrolidin-1-ylsulfonyl)-1H-indol-2-yl]-N′-[3-(dimethylamino)propyl]urea], the IC50 in test [3] was 1000 to 20000 nM; in test [2] it was < 1000 nM.

Turning to `O=C(Nc1[nH]c2ccc(Br)cc2c1S(=O)(=O)N1CCCC1)N1CCC1` [Example 96, N-[5-bromo-3-(pyrrolidin-1-ylsulfonyl)-1H-indol-2-yl]azetidine-1-carboxamide], the IC95 in test [1] (Human immunodeficiency virus 1, T-lymphoid) was 1000 to 10000 nM.
